This note sets out measurements from patent publication US9133204B2, “5-membered heterocyclic amides and related compounds” (H. Lundbeck A/S, priority 2007, dated 2015).

The structures appear in SMILES notation. A value given as a limit tells only on which side of the number the result lay.

One assay addresses T1, P2X7 receptor (Homo sapiens, UniProt Q99572).
T1 construct: host or cells: SH-SY5Y
T1 sequence (Q99572 1-595): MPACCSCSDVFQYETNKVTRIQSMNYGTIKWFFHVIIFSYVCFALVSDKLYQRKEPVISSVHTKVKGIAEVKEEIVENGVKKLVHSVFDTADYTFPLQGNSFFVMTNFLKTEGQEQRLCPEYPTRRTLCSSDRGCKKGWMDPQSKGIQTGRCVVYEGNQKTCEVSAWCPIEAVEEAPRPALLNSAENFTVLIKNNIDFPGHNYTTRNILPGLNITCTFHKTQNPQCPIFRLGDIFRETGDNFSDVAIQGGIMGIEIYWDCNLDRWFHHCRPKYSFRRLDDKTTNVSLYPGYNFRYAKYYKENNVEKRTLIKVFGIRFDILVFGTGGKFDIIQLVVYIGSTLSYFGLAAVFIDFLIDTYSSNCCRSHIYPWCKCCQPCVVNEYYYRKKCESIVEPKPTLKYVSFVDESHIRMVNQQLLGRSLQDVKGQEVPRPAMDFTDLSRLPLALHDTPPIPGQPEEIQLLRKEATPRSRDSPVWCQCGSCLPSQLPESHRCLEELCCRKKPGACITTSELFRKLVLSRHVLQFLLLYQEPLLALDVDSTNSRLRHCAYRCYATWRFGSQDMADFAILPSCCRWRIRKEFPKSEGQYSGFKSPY
The experiment in a line: High throughput P2X7 calcium mobilization assay (Example 4A). The format is cell-based. To be noted: SH-SY5Y cells; 50% decrease in fluorescence response of cells exposed to 80 μM BzATP; Table I. The method, then:
A. High Throughput Assay of P2X7 Receptors
SH-SY5Y cells, ATCC Number CRL-2266, (American Type Culture Collection, Manassas, Va.) are cultured under DMEM/High medium supplemented with 10% FBS, and 10 mM HEPES (Invitrogen Corp., Carlsbad, Calif.) in 5% CO2 and at 37° C. One day prior to the experiment, cells are plated at a density of 100,000 cells/well in a 96 well black/clear TC plate (Corning® Costar®, Sigma-Aldrich Co., St. Louis, Mo.). At the beginning of the experiment, the culture medium is removed and cells are incubated with 50 μL of 2.3 μM Fluo-4 AM dye (Invitrogen Corp.) in the assay solution (5 mM KCl, 9.6 mM NaH2PO4.H2O, 25 mM HEPES, 280 mM sucrose, 5 mM glucose, and 0.5 mM CaCl2; pH is adjusted to 7.4 with NaOH) for an hour at 37° C. After one hour dye incubation, wells are rinsed once with 50 μL assay solution, and are then incubated for an hour at room temperature with 100 μL assay solution containing the test compound. The final concentration of test compound generally ranges from 1 to 2500 nM; for positive control cells, no test compound is added. After the one hour incubation, plates are transferred to a FLIPR^TETRA instrument (Molecular Devices, Sunnyvale, Calif.) for calcium mobilization analysis.
For determination of antagonist activity, 50 μL, of P2X7 agonist (2′(3)-O-(4-benzoyl-benzoyl)adenosine 5′-triphosephate (BzATP; Sigma-Aldrich) in the assay solution is transferred using the FLIPR into the plate, such that the final agonist concentration is 80 μM (about EC50). In negative control cells, 50 μL of assay solution without agonist is added at this stage. The peak fluorescence signal over a 2 minute period is then measured.
First, the average maximum relative fluorescent unit (RFU) response from the negative control wells (no agonist) is subtracted from the maximum response detected for each of the other experimental wells. Second, average maximum RFU response is calculated for the positive control wells (agonist wells).
Background: Calcium assays in cells follow changes in intracellular calcium, usually with a dye or a luminescent sensor.
Usually IC50 stands for the concentration that gives 50% inhibition. Take `O=C(NCC12CC3CC(CC(C3)C1)C2)c1sc(-c2ccccc2C(F)(F)F)nc1Cl` [Compound 65, N-(adamantan-1-ylmethyl)-4-chloro-2-[2-(trifluoromethyl)phenyl]-1,3-thiazole-5-carboxamide]: the IC50 is at most 2000 nM.
Still for that read-out and setting: under `Cc1cnc(-n2cc(C(=O)NCC34CC5CC(CC(C5)C3)C4)c(C)n2)nc1-c1cncnc1` [Compound 120, N-(adamantan-1-ylmethyl)-3-methyl-1-(5-methyl-4,5′ bipyrimidin-2-yl)-1H-pyrazole-4-carboxamide] stands at most 2000 nM.
Regarding `Cc1nc(-c2cccnc2)sc1C(=O)NCC1(c2cccnc2)CCCCC1` [Compound 311, 4-methyl-2-pyridin-3-yl-N-[(1-pyridin-3-ylcyclohexyl)methyl]-1,3-thiazole-5-carboxamide], the half-inhibitory concentration (IC50) was at most 2000 nM.
The same measure, in the same setting: the value for `O=C(NCC(CC1CCCC1)c1ccccc1)c1cn(-c2ncccn2)nc1C(F)(F)F` (stereo not drawn) [Compound 210, N-(3-cyclopentyl-2-phenylpropyl)-1-pyrimidin-2-yl-3-(trifluoromethyl)-1H-pyrazole-4-carboxamide] was at most 2000 nM; that for `Cc1nn(-c2nccc(N)n2)cc1C(=O)NCC1(c2ccc(C(F)(F)F)cc2)CCCCC1` [Compound 175, 1-(4-aminopyrimidin-2-yl)-3-methyl-N-({1-[4-(trifluoromethyl)phenyl]cyclohexyl]methyl)-1H-pyrazole-4-carboxamide] was at most 2000 nM; that for `Nc1nccnc1-n1cc(C(=O)NCC2(c3cccnc3)CCCCC2)c(C(F)(F)F)n1` [Compound 157, 1-(3-aminopyrazin-2-yl)-N-[(1-pyridin-3-ylcyclohexyl)methyl]-3-(trifluoromethyl)-1H-pyrazole-4-carboxamide] was at most 2000 nM.
On the same count and under the same terms, under `Cc1nn(-c2ncccn2)cc1C(=O)NCC1(c2ccc(C(F)(F)F)cc2)CCCCC1` [Compound 181, 3-methyl-1-pyrimidin-2-yl-N-({1-[4-(trifluoromethyl)phenyl]cyclohexyl]methyl)-1H-pyrazole-4-carboxamide] stands at most 2000 nM; under `O=C(NCC12CC3CC(CC(C3)C1)C2)c1cn(-c2cnccn2)nc1C(F)(F)F` [Compound 136, N-(adamantan-1-ylmethyl)-1-pyrazin-2-yl-3-(trifluoromethyl)-1H-pyrazole-4-carboxamide], at most 2000 nM.
On the same count and under the same terms, the value for `O=C(NCC1(c2cccnc2)CCCCC1)c1sc(-c2ccc3[nH]ccc3c2)nc1C(F)(F)F` [Compound 318, 2-(1H-indol-5-yl)-N-[(1-pyridin-3-ylcyclohexyl)methyl]-4-(trifluoromethyl)-1,3-thiazole-5-carboxamide] was at most 2000 nM.
`O=C(NCC1(c2cccnc2)CCCCC1)c1sc(N2CCNCC2)nc1C(F)(F)F` [Compound 300, 2-piperazin-1-yl-N-[(1-pyridin-3-ylcyclohexyl)methyl]-4-(trifluoromethyl)-1,3-thiazole-5-carboxamide]: the half-inhibitory concentration (IC50) is at most 2000 nM.
On the same count and under the same terms, the value for `CC(C)CC(CNC(=O)c1sc(-c2ncccn2)nc1C(F)(F)F)c1ccc(C(F)(F)F)nc1` (stereo not drawn) [Compound 304, N-{4-methyl-2-[6-(trifluoromethyl)pyridin-3-yl]pentyl}-2-pyrimidin-2-yl-4-(trifluoromethyl)-1,3-thiazole-5-carboxamide] was at most 2000 nM; that for `Nc1ccnc(-n2cc(C(=O)NCC34CC5CC(CC(C5)C3)C4)c(C3CC3)n2)n1` [Compound 146, N-(adamantan-1-ylmethyl)-1-(4-aminopyrimidin-2-yl)-3-cyclopropyl-1H-pyrazole-4-carboxamide] was at most 2000 nM.
The same measure, in the same setting: the value for `CCCC(CNC(=O)c1sc(-c2ncccn2)nc1CC)c1ccc(Cl)cc1` (stereo not drawn) [Compound 277, N-[2-(4-chlorophenyl)pentyl]-4-ethyl-2-pyrimidin-2-yl-1,3-thiazole-5-carboxamide] was at most 2000 nM; that for `Cc1cnc(-n2cc(C(=O)NCC34CC5CC(CC(C5)C3)C4)c(C)n2)nc1-c1ncccn1` [Compound 122, N-(adamantan-1-ylmethyl)-3-methyl-1-(5′-methyl-2,4′-bipyrimidin-2′-yl)-1H-pyrazole-4-carboxamide] was at most 2000 nM.
As for `CC(C)CC(CNC(=O)c1cn(-c2ncccn2)nc1C(F)(F)F)c1cccnc1` (stereo not drawn) [Compound 203, N-(4-methyl-2-pyridin-3-ylpentyl)-1-pyrimidin-2-yl-3-(trifluoromethyl)-1H-pyrazole-4-carboxamide], the IC50 is at most 2000 nM.
As to `Cc1nn(-c2nccnc2N)cc1C(=O)NCC12CC3CC(CC(C3)C1)C2` [Compound 58, N-(adamantan-1-ylmethyl)-1-(3-aminopyrazin-2-yl)-3-methyl-1H-pyrazole-4-carboxamide], the IC50 is at most 2000 nM.
Regarding `CC(C)CC(CNC(=O)c1sc(-c2cccnc2)nc1C(F)(F)F)c1ccc(C(F)(F)F)cc1` (stereo not drawn) [Compound 165, N-{4-methyl-2-[4-(trifluoromethyl)phenyl]pentyl}-2-pyridin-3-yl-4-(trifluoromethyl)-1,3-thiazole-5-carboxamide], the half-inhibitory concentration (IC50) is at most 2000 nM.
Take `O=C(NCC1(c2ccc(Cl)nc2)CCCCC1)c1sc(-c2ncccn2)nc1C(F)(F)F` [Compound 291, N-{[1-(6-chloropyridin-3-yl)cyclohexyl]methyl}-2-pyrimidin-2-yl-4-(trifluoromethyl)-1,3-thiazole-5-carboxamide]: the IC50 is at most 2000 nM.
Same read-out and setting: the value for `Cc1cccnc1-n1cc(C(=O)NCC23CC4CC(CC(C4)C2)C3)c(C(F)(F)F)n1` [Compound 132, N-(adamantan-1-ylmethyl)-1-(3-methylpyridin-2-yl)-3-(trifluoromethyl)-1H-pyrazole-4-carboxamide] was at most 2000 nM; that for `Cc1nc(N2CCNCC2)sc1C(=O)NCC12CC3CC(CC(C3)C1)C2` [Compound 72, N-(adamantan-1-ylmethyl)-4-methyl-2-piperazin-1-yl-1,3-thiazole-5-carboxamide] was at most 2000 nM.
Same read-out and setting: the value for `COc1nccnc1-n1cc(C(=O)NCC23CC4CC(CC(C4)C2)C3)c(C)n1` [Compound 42, N-(adamantan-1-ylmethyl)-1-(3-methoxypyrazin-2-yl)-3-methyl-1H-pyrazole-4-carboxamide] was at most 2000 nM; that for `Cc1cnc(-n2cc(C(=O)NCC34CC5CC(CC(C5)C3)C4)c(C)n2)nc1-c1ccccn1` [Compound 121, N-(adamantan-1-ylmethyl)-3-methyl-1-(5-methyl-4-pyridin-2-ylpyrimidin-2-yl)-1H-pyrazole-4-carboxamide] was at most 2000 nM.

The same assay, now with this note: SH-SY5Y cells; 50% decrease in fluorescence response of cells exposed to 80 μM BzATP; flag after the MS data in Examples 1-2.
With `Cn1nc(-c2ccccc2)cc1C(=O)NCC1(c2cccnc2)CCCCC1` [Compound 19, 1-Methyl-3-phenyl-N-[(1-pyridin-3-ylcyclohexyl)methyl]-1H-pyrazole-5-carboxamide], the IC50 was at most 2000 nM.
Still for that read-out and setting: under `O=C(NCC12CC3CC(CC(C3)C1)C2)c1cn(-c2ncccn2)nc1Cl` [Compound 7, N-(Adamantan-1-ylmethyl)-3-chloro-1-pyrimidin-2-yl-1H-pyrazole-4-carboxamide] stands at most 2000 nM; under `O=C(NCC1(c2cccnc2)CCCCC1)c1cn(-c2nccn3ccnc23)nc1C(F)(F)F` [Compound 14, 1-Imidazo[1,2-a]pyrazin-8-yl-3-trifluoromethyl-1H-pyrazole-4-carboxylic acid (1-pyridin-3-yl-cyclohexylmethyl)-amide], at most 2000 nM.
As to `Cc1nc(-c2cccnc2)sc1C(=O)NCC1(c2ccc(Cl)c(F)c2)CCCCC1` [Compound 39, N-{[1-(4-chloro-3-fluorophenyl)cyclohexyl]methyl}-4-methyl-2-pyridin-3-yl-1-,3-thiazole-5-carboxamide], the 50% inhibitory concentration (IC50) was at most 2000 nM.
The same measure, in the same setting: under `O=C(NCC(c1ccc(Cl)cc1)N1CCCCC1)c1sc(-c2ncccn2)nc1C(F)(F)F` (stereo not drawn) [Compound 23, N-[2-(4-chlorophenyl)-2-piperidin-1-ylethyl]-2-pyrimidin-2-yl-4-(trifluoromethyl)-1,3-thiazole-5-carboxamide] stands at most 2000 nM.
